Experimental data: PMC5387716, “Discovery of monocarbonyl curcumin-BTP hybrids as STAT3 inhibitors for drug-sensitive and drug-resistant breast cancer therapy” (Scientific Reports, 2017)

Columns and labels:
Type in all cases: cell-based, human
MCF-7 cells [1] = assay: MTT anti-proliferative assay, MCF-7; conditions: Homo sapiens, MCF7, 48 h, read-out: MCF-7 IC50 ± SD
Procedure: (§1) All cell lines were purchased from Cell Bank of Shanghai Institute of Biochemistry and Cell Biology, Chinese Academy of Sciences (Shanghai, China). Human breast carcinoma cells (MCF-7 and MCF-7/DOX), breast epithelial cells (MCF-10A) and normal human liver cells (LO2) were maintained in RPMI-1640 medium. All cells were supplemented with 12% fetal bovine serum containing 50 μg/ml penicillin and 50 μg/ml streptomycin. Cells were grown to 80% confluency in a tissue culture flask at 37 °C in a humidified atmosphere containing 5% CO2, and then were trypsinized with 1 × Trypsin-Versene and split. The MCF-7/DOX cell line we used was established from its parental cell line MCF-7 cell by gradually increasing the concentration of DOX to which the cells were exposed in a stepwise manner over a period of 8 months. […] The cells were incubated in drug-free medium for at least 1 week before use.
(§2) Cells (MCF-7, MCF-7/DOX, MCF-10A, LO2) were seeded in 96-well plates at a density of 3,000–6,000 cells per well. The cells were incubated overnight (16 h) in a humidified 5% CO2 incubator at 37 °C. After media removal, different concentrations of test compounds were added in triplicate to the plates in 200 μL of fresh media and were incubated with the cells at 37 °C for 48 h. […] Cell viability was evaluated using 3-(4, 5-dimethylthiazolyl)-2,5-diphenyltetrazoliumbromide (MTT). The absorbance was read by an ELISA reader (SpectraMax Plus384, Molecular Devices, Sunnyvale, CA) at a test wavelength of 570 nm and a reference wavelength of 630 nm. Cell viability was calculated using the following formula: […]

MCF-7/DOX cells [2] = assay: MTT anti-proliferative assay, MCF-7/DOX; conditions: Homo sapiens, MCF7-DOX; MTT, 48 h; read-out: MCF-7/DOX IC50 ± SD
Procedure: as §1, §2

Bcl-2 gene = assay: Quantitative real-time RT-PCR of Bcl-2; conditions: MCF-7 and MCF-7/DOX cells, 24 h
Procedure: (§3) Levels of mRNA expression were analyzed with the RT-PCR assay, with total RNA isolated from MCF-7 or MCF-7/DOX cells using an EASYspin Plus tissue/cell RNA extraction kit (Aidlab Biotechnologies Co. Ltd). RNA was quantified by measuring absorption at 260 nm and 1 μg of RNA was reverse transcribed to cDNA using the Transcriptor First Strand cDNA Synthesis Kit (Roche Diagnostics, Basel, Switzerland). Thermal cycling conditions included 95 °C initial denaturation for 5 min, followed by 40 cycles of denaturation (10 s at 95 °C), annealing (15 s at 60 °C) and extension (15 s at 72 °C with a single fluorescence measurement), a melt curve program (60–95 °C with a 0.11 °C/s heat increase and continuous fluorescence measurement) and a cooling step to 40 °C. The Δ cycle threshold method was used for the calculation of relative differences in mRNA abundance with a LightCycler 480 (Roche Molecular Biochemicals, Mannheim, Germany). The data were normalized to the expression of GAPDH. The results were expressed as fold-changes. The RT-PCR primers that were used in this study are listed in the supporting information.

Cyclin D1 gene = assay: Quantitative real-time RT-PCR of Cyclin D1; conditions: MCF-7 and MCF-7/DOX cells, 24 h
Procedure: as §3

Bax gene = assay: Quantitative real-time RT-PCR of Bax; conditions: MCF-7 and MCF-7/DOX cells, 24 h
Procedure: as §3

MCF-7 cells [3] = assay: Annexin V-APC/7-AAD flow cytometry of apoptosis, MCF-7; conditions: 4 μM, 24 h
Procedure: (§4) MCF-7, MCF-7/DOX or MCF-10A cells, at a density of 2.5 × 10^5 cells per well, were cultured in regular growth medium in 6-well plates for 24 h and treated in duplicate with different concentrations of 6b or curcumin for 24 h. The cells were harvested, washed and stained with 5 μL of Annexin V-APC and 5 μL of 7-AAD at room temperature for 15 min. Cells were then analyzed by flow cytometry (488 nm excitation and 600 nm emission filters) using a BD FACSCalibur flow cytometer (Becton & Dickinson Company, Franklin Lakes, NJ).

MCF-7/DOX cells [4] = assay: Annexin V-APC/7-AAD flow cytometry of apoptosis, MCF-7/DOX; conditions: 4 μM, 24 h
Procedure: as §4

MCF-7 cells [5] = assay: Flow cytometry of the cell cycle, MCF-7; conditions: MCF-7, 4 μM, 24 h
Procedure: (§5) MCF-7 or MCF-7/DOX cells were plated in 6-well culture plates (1.5 × 10^5 cells per well). After incubation overnight, various concentrations of 6b or curcumin were added and cells were incubated for 24 h. Cells were harvested, washed with cold PBS, and incubated with pre-cooled 70% ethanol for a minimum of 4 h at 4 °C to fix them. The cells were then centrifuged, carefully aspirated from the supernatant, and re-suspended in a propidium iodide (final concentration, 40 μg/ml) and RNase A (final concentration, 100 μg/ml) solution at a final cell density of 0.5 × 10^6 cells/ml. The suspension was incubated at 37 °C for 30 min prior to analysis by flow cytometry.

MCF-7/DOX cells [6] = assay: Flow cytometry of the cell cycle, MCF-7/DOX; conditions: 4 μM, 24 h
Procedure: as §5

MCF-7 cells [7] = assay: ROS detection by DCFH-DA flow cytometry, MCF-7; conditions: MCF-7, 4 μM, 24 h
Procedure: (§6) MCF-7 or MCF-7/DOX cells were seeded at a density of 3 × 10^5 cells per well of a 6-well plate and treated with various concentrations of 6b (0, 1, 2, 4 μM) or 4 μM curcumin for 24 h. DCFH-DA was dissolved in serum-free medium and diluted to a final concentration of 10 μM. After treatment with 6b, the growth media was replaced with serum-free medium containing the probe. After incubation for 20 min at 37 °C, cells were washed with serum-free medium twice, digested by trypsin and resuspended in pre-warmed PBS buffer. The samples were then subjected to a flow cytometry assay using a BD FACSCalibur flow cytometer (Becton & Dickinson Company, Franklin Lakes, NJ).

MCF-7/DOX cells [8] = assay: ROS detection by DCFH-DA flow cytometry, MCF-7/DOX; conditions: 4 μM, 24 h
Procedure: as §6

In the case of COc1cc(/C=C/C(=O)CC(=O)/C=C/c2ccc(O)c(OC)c2)ccc1O [curcumin], the IC50 (MCF-7 cells [1]) is reported as 37.7 ± 8.2 µM, the IC50 (MCF-7/DOX cells [2]) is reported as 32.7 ± 4 µM and the “Bcl-2 gene level (in words)” value (Bcl-2 gene) is reported as “little effect”. For the same compound, the “Cyclin D1 gene level (in words)” value (Cyclin D1 gene) was “little effect”, the “Bax gene level (in words)” value (Bax gene) was “little effect” and the apoptosis rate (MCF-7 cells [3]) was “small effect”. For the same compound, the apoptosis rate (MCF-7/DOX cells [4]) was “small effect”, the “effect on the cell cycle” value (MCF-7 cells [5]) was “little effect” and the “effect on the cell cycle” value (MCF-7/DOX cells [6]) was “little effect”. For the same compound, the ROS generation (MCF-7 cells [7]) was “little effect” and the ROS generation (MCF-7/DOX cells [8]) was “little effect”.
